The test has as its target T1, α-glucosidase (sucrase) existing in small intestine of rat (Rattus norvegicus, UniProt P23739).
T1 construct: the supernatant liquid thereof was used as an enzyme solution (sucrase); from tissue; host or cells: rat small intestinal mucous membrane (brush border membrane)
The test is described as follows: Inhibition of rat small intestinal α-glucosidase (sucrase), IC50. Format: biochemical. The following applies: partially purified rat small intestinal sucrase, 5 mM sucrose, 37° C. for 60 minutes. The method, then: As to the α-glucosidase, a sucrase solution which was partially purified from small intestinal mucous membrane (brush edge membrane) of rat was used. Namely, the mucous membrane of small intestine was exfoliated using a slide glass, homogenized at 4° C. for 5 minutes with a phosphate buffer and subjected to an ultrasonic treatment for 5 minutes. The resulting solution of smashed mucous membrane was centrifuged and the supernatant liquid thereof was used as an enzyme solution (sucrase). A 5 mM sucrose solution was used as a substrate, an enzyme solution and a predetermined amount of a 1-deoxynojirimycin solution or a mulberry extract were added and the reaction was carried out at 37° C. for 60 minutes and then stopped by a treatment at 100° C. for 5 minutes. Amount of glucose in the reaction solution was measured by a biochemical automatic analyzer.

Here are results for one molecule from patent US20010018090A1, “Calorie reducing agent” (priority 1999, published 2001).

Molecules are shown by their SMILES. In brackets after ≈: the same amount, converted by molar mass.

T1 sequence (P23739 whole entry): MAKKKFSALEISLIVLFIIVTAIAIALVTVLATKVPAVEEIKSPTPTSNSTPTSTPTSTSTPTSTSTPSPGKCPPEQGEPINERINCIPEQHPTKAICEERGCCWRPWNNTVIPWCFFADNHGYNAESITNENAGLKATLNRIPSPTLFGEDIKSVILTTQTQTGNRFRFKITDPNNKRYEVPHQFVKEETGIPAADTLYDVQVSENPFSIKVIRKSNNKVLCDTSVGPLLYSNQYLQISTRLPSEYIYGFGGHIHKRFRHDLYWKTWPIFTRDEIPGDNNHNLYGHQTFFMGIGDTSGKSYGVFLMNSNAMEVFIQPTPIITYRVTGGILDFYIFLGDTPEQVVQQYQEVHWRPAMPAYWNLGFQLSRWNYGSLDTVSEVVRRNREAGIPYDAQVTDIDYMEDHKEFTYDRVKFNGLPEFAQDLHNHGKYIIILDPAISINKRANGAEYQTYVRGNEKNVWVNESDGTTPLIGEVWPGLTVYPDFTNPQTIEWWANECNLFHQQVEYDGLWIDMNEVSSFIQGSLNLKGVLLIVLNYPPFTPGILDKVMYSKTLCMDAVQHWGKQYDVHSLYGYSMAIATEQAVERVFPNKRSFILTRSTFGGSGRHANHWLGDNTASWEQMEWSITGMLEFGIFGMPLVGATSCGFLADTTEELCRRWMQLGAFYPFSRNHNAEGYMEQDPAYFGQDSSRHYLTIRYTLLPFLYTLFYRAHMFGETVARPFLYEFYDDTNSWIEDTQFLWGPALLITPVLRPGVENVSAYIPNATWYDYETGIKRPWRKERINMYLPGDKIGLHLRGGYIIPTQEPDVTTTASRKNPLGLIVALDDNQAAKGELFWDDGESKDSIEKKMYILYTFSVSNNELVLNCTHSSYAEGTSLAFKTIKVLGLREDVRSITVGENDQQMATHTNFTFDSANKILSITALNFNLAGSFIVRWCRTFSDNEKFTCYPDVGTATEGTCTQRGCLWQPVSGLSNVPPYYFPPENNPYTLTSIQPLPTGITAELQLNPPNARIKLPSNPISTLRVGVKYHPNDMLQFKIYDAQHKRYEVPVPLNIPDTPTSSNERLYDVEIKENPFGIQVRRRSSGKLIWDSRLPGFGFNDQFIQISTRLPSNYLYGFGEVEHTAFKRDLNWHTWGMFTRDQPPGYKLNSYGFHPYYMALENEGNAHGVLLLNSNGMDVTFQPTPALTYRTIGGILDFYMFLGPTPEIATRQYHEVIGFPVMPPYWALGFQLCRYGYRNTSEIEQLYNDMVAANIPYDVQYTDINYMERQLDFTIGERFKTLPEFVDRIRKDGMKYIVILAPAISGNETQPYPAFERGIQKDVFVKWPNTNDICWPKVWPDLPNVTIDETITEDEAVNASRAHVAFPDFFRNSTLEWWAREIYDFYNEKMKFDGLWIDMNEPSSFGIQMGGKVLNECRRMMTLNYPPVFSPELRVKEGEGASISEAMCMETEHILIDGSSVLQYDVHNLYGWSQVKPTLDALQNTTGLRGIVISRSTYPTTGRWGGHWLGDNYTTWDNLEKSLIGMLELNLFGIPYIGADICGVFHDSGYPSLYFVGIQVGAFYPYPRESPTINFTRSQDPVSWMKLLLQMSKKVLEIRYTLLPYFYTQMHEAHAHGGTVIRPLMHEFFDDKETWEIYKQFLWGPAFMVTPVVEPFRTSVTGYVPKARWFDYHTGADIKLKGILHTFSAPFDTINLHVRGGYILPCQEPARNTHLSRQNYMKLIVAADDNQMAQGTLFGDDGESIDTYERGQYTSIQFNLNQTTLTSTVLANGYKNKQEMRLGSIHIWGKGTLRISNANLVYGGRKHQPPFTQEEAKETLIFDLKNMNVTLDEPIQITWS

On to `OC[C@H]1NC[C@H](O)[C@@H](O)[C@@H]1O` [1-Deoxynojirimycin, 1-deoxynojirimycin], for which the “IC50 to Sucrase” value came to 0.05 µg/mL (≈ 0.306 µM).
